Common to all, as to assay: MIC by agar-dilution technique, Jewell and Pearmain agar
Format in all cases: cell-based

For one assay, the system named is Strep. pyogenes. The following applies: Streptococcus pyogenes, Code No. A1, inoculum ~10^5 CFU. The source says: (§1) The results set out in the following Table are illustrative of the biological activity of the compounds of the present invention. […] The following results are those obtained on a standard in vitro test system using Jewell and Pearmain agar medium. The antibacterial activity is described in terms of the minimum inhibitory concentration (MIC) determined by agar-dilution technique with an inoculum size of ~10^5 CFU.

A further assay has as its system Proteus mirabilis. The following applies: Code No. A18, inoculum ~10^5 CFU.
Text: as §1

For the next assay, the system named is Ent. cloacae. To be noted: Enterobacter cloacae, Code No. A13, inoculum ~10^5 CFU.
Text: as §1

The test system of another assay is Ps. aeruginosa. To be noted: Pseudomonas aeruginosa, Code No. A21, inoculum ~10^5 CFU.
Text: as §1

In a further assay the test system is E. coli. The following applies: Escherichia coli, Code No. A8, inoculum ~10^5 CFU.
Text: as §1

The subject of a further assay is Salmonella dublin. To be noted: Salmonella enterica, Code No. A20, inoculum ~10^5 CFU.
Text: as §1

Another assay deals with Staph. aureus. To be noted: Staphylococcus aureus, Code No. A6, inoculum ~10^5 CFU.
Text: as §1

The subject of the next assay is K. aerogenes. The following applies: Klebsiella aerogenes, Code No. A10, inoculum ~10^5 CFU.
Text: as §1

The test system of the next assay is Serratia marescens. The following applies: Code No. A16, inoculum ~10^5 CFU.
Text: as §1

In brackets after ≈: the same amount, converted by molar mass.

Consider `Cn1nnnc1SCC1=C(C(=O)O)N2C(=O)[C@@H](Nc3nc(CCC#N)c[nH]3)[C@H]2SC1` [Example 16, 7-[4-(2-cyanoethyl)imidazol-2-yl]amino-3-(1-methyl-1H-tetrazol-5-yl)thiomethylceph-3-em-4-carboxylic acid], for which the MIC (as a rule, the lowest concentration found to suppress growth) against Strep. pyogenes is 8 µg/mL (≈ 17.9 µM); in the assay on Proteus mirabilis, 1 µg/mL (≈ 2.23 µM); in the assay with Ent. cloacae it was 4 µg/mL (≈ 8.94 µM); against Ps. aeruginosa, above 128 µg/mL; against E. coli, 0.016 µg/mL (≈ 0.0358 µM); in the assay with Salmonella dublin, 0.008 µg/mL (≈ 0.0179 µM). The MIC was 16 µg/mL (≈ 35.8 µM) with Staph. aureus, 0.06 µg/mL (≈ 0.134 µM) in the assay with K. aerogenes and 2 µg/mL (≈ 4.47 µM) against Serratia marescens.
As to `O=C(O)C1=C(CSc2c[nH]nn2)CS[C@@H]2[C@H](Nc3nc(CCCNC(=S)NCC(F)(F)F)c[nH]3)C(=O)N12` [Example 80, 7-[4-(3-[3-(2,2,2-trifluoroethyl)thioureido]propyl)imidazol-2-yl]amino-3-(1H-1,2,3-triazol-4-yl)thiomethylceph-3-em-4-carboxylic acid], the MIC with Strep. pyogenes is 32 µg/mL (≈ 55.4 µM); against Proteus mirabilis, 4 µg/mL (≈ 6.92 µM); against Ent. cloacae, 4 µg/mL (≈ 6.92 µM); with Ps. aeruginosa it was above 128 µg/mL; against E. coli, 1 µg/mL (≈ 1.73 µM); with Salmonella dublin, 0.5 µg/mL (≈ 0.866 µM). In addition, the MIC in the assay with Staph. aureus worked out at 32 µg/mL (≈ 55.4 µM); against K. aerogenes, 2 µg/mL (≈ 3.46 µM); in the assay on Serratia marescens, 64 µg/mL (≈ 111 µM).
As for `CC(=O)OCC1=C(C(=O)O)N2C(=O)[C@@H](Nc3nc(Cc4ccccc4)c[nH]3)[C@H]2SC1` [Example 1, 7-(4-benzylimidazol-2-yl)amino-3-acetoxymethylceph-3-em-4-carboxylic acid], the MIC against Proteus mirabilis was 32 µg/mL (≈ 74.7 µM); in the assay with Ent. cloacae, 128 µg/mL (≈ 299 µM); in the assay with Ps. aeruginosa, above 256 µg/mL; against E. coli it was 0.25 µg/mL (≈ 0.583 µM); in the assay on Salmonella dublin it was 0.5 µg/mL (≈ 1.17 µM); in the assay with Staph. aureus, 32 µg/mL (≈ 74.7 µM). Besides, the MIC against K. aerogenes was found to be 1 µg/mL (≈ 2.33 µM); in the assay with Serratia marescens, 64 µg/mL (≈ 149 µM).
On to `Cc1nnc(SCC2=C(C(=O)O)N3C(=O)[C@@H](Nc4nc(CCNC(=O)C(F)(F)F)c[nH]4)[C@H]3SC2)s1` [Example 4.2, 7-[4-(2-trifluoroacetylaminoethyl)imidazol-2-yl]amino-3-(2-methyl-1,3,4-thiadiazol-5-yl)thiomethylceph-3-em-4-carboxylic acid], for which the MIC in the assay with Strep. pyogenes is 16 µg/mL (≈ 29.1 µM); against Proteus mirabilis it was 16 µg/mL (≈ 29.1 µM); against Ent. cloacae, 16 µg/mL (≈ 29.1 µM); with Ps. aeruginosa it was above 256 µg/mL; in the assay on E. coli it was 0.12 µg/mL (≈ 0.218 µM); against Salmonella dublin it was 0.25 µg/mL (≈ 0.455 µM). Further, the minimum inhibitory concentration (MIC) came out at 32 µg/mL (≈ 58.2 µM) against Staph. aureus, 0.12 µg/mL (≈ 0.218 µM) with K. aerogenes and 4 µg/mL (≈ 7.28 µM) against Serratia marescens.
With `O=C(O)C1=C(CSc2c[nH]nn2)CS[C@@H]2[C@H](Nc3nc(CCNC(=O)C(F)(F)F)c[nH]3)C(=O)N12` [Example 10, 7-[4-(2-trifluoroacetylaminoethyl)imidazol-2-yl]amino-3-(1H-1,2,3-triazol-4-yl)thiomethylceph-3-em-4-carboxylic acid], the MIC against Strep. pyogenes is 64 µg/mL (≈ 123 µM); against Proteus mirabilis, 2 µg/mL (≈ 3.86 µM); in the assay with Ent. cloacae, 16 µg/mL (≈ 30.9 µM); in the assay on Ps. aeruginosa it was above 256 µg/mL; against E. coli, 0.03 µg/mL (≈ 0.0579 µM); against Salmonella dublin, 0.016 µg/mL (≈ 0.0309 µM). The MIC in the assay on Staph. aureus is 64 µg/mL (≈ 123 µM); in the assay with K. aerogenes, 0.06 µg/mL (≈ 0.116 µM); against Serratia marescens, 16 µg/mL (≈ 30.9 µM).
As for `CNC(=O)OCCCc1c[nH]c(N[C@@H]2C(=O)N3C(C(=O)O)=C(COC(C)=O)CS[C@H]23)n1` [Example 9.2, 7-[4-(3-methylcarbamoyloxypropyl)imidazol-2-yl]amino-3-acetoxymethylceph-3-em-4-carboxylic acid], the MIC was 32 µg/mL (≈ 70.6 µM) in the assay on Strep. pyogenes; 8 µg/mL (≈ 17.6 µM) against Proteus mirabilis; 64 µg/mL (≈ 141 µM) in the assay on Ent. cloacae; above 256 µg/mL against Ps. aeruginosa; 0.03 µg/mL (≈ 0.0662 µM) with E. coli; 0.06 µg/mL (≈ 0.132 µM) in the assay on Salmonella dublin. Also, the results for the MIC with Staph. aureus, in the assay on K. aerogenes and in the assay on Serratia marescens were 64 µg/mL (≈ 141 µM), 0.06 µg/mL (≈ 0.132 µM) and 8 µg/mL (≈ 17.6 µM), respectively.
As for `C=CCc1c[nH]c(N[C@@H]2C(=O)N3C(C(=O)O)=C(CSc4nnnn4C)CS[C@H]23)n1` [Example 6.1, 7-(4-allylimidazol-2-yl)amino-3-(1-methyl-1H-tetrazol-5-yl)thiomethylceph-3-em-4-carboxylic acid], the MIC against Strep. pyogenes is 8 µg/mL (≈ 18.4 µM); against Proteus mirabilis, 2 µg/mL (≈ 4.6 µM); with Ent. cloacae, 16 µg/mL (≈ 36.8 µM); with Ps. aeruginosa, above 256 µg/mL; against E. coli, 0.016 µg/mL (≈ 0.0368 µM); against Salmonella dublin, 0.016 µg/mL (≈ 0.0368 µM). Moreover, the results for the MIC against Staph. aureus, with K. aerogenes and with Serratia marescens were 32 µg/mL (≈ 73.6 µM), 0.03 µg/mL (≈ 0.069 µM) and 0.25 µg/mL (≈ 0.575 µM), respectively.
